Measured values reported in ChEMBL document CHEMBL1122818, “Synthesis and biological activity of certain 6-substituted and 2,6-disubstituted 2'-deoxytubercidins prepared via the stereospecific sodium salt glycosylation procedure” (J Med Chem, 1985).

Columns and labels:
[1] = tested on: Human alphaherpesvirus 2; assay: In vitro antiviral activity was tested against, herpes simplex type 2 virus (HSV-2); type: functional; details: read-out: ED50 (the source's name)
[2] = tested on: P388; assay: In vitro inhibitory effect was tested for cytostatic activity on the growth of lymphoid neoplasm P388 leukemic cell lines; type: functional; details: Mus musculus, read-out: ID50 (the source's name)
[3] = tested on: L1210; assay: In vitro inhibitory effect was tested for cytostatic activity on the growth of murine leukemic L1210 cell lines; type: functional; details: Mus musculus, read-out: ID50 (the source's name)
[4] = tested on: Measles morbillivirus; assay: In vitro antiviral activity was tested against, measles virus; type: functional; details: read-out: ED50 (the source's name)
[5] = tested on: Vaccinia virus; assay: In vitro antiviral activity was tested against, vaccinia virus (VV); type: functional; details: Orthopoxvirus vaccinia; read-out: ED50 (the source's name)
[6] = Toxic level was evaluated; type: ADME
[7] = tested on: Human respirovirus 3; assay: In vitro antiviral activity was tested against, parainfluenza type 3 (Para 3) virus; type: functional; details: read-out: ED50 (the source's name)
[8] = tested on: Vaccinia virus; assay: In vitro antiviral activity was tested against, vaccinia virus (VV); b=Too insoluble to test; type: functional, organism-based; details: Orthopoxvirus vaccinia
[9] = tested on: Human alphaherpesvirus 2; assay: In vitro antiviral activity was tested against, herpes simplex type 2 virus (HSV-2); b=Too insoluble to test; type: functional, organism-based
[10] = Toxic level was evaluated; b=Too insoluble to test; type: ADME
[11] = tested on: Measles morbillivirus; assay: In vitro antiviral activity was tested against, measles virus; b=Too insoluble to test; type: functional, organism-based
[12] = tested on: Human respirovirus 3; assay: In vitro antiviral activity was tested against, parainfluenza type 3 (Para 3) virus; b=Too insoluble to test; type: functional, organism-based
[13] = Toxic level was evaluated; None; type: ADME
[14] = tested on: Human respirovirus 3; assay: In vitro antiviral activity was tested against, parainfluenza type 3 (Para 3) virus; details: read-out: ED50 (the source's name)
[15] = tested on: Vaccinia virus; assay: In vitro antiviral activity was tested against vaccinia virus (VV); type: functional; details: Orthopoxvirus vaccinia; read-out: ED50 (the source's name)
[16] = tested on: Measles morbillivirus; assay: In vitro antiviral activity was tested against measles virus; type: functional; details: read-out: ED50 (the source's name)
[17] = tested on: Human alphaherpesvirus 2; assay: In vitro antiviral activity was tested against herpes simplex type 2 virus (HSV-2); type: functional; details: read-out: ED50 (the source's name)

SMILES	EC50 [1] [µM]	EC50 [4] [µM]	EC50 [5] [µM]	Toxic level [6] [mM]	EC50 [7] [µM]	also measured
Nc1nc(Cl)nc2c1ncn2[C@H]1C[C@H](O)[C@@H](CO)O1 [CLADRIBINE]	5	> 500	5	0.005	> 500	IC50 [2]: 0.032 µM; IC50 [3]: 0.026 µM
Nc1ncnc2c1cc(Cl)n2[C@H]1C[C@H](O)[C@@H](CO)O1	1100	360	330	1.6	1600	
Nc1ncnc2c1ccn2[C@H]1C[C@H](O)[C@@H](CO)O1 [2'-Deoxytubercidin]	50	210	160	1.6	660	IC50 [2]: 49 µM; IC50 [3]: 80 µM
CSc1nc(Cl)c2cc(C)n([C@H]3C[C@H](O)[C@@H](CO)O3)c2n1						ED50 [8]: Too insoluble; ED50 [9]: Too insoluble; Toxic level [10]: Too insoluble; ED50 [11]: Too insoluble; ED50 [12]: Too insoluble
Cc1nc(N)c2cc(Cl)n([C@H]3C[C@H](O)[C@@H](CO)O3)c2n1	500	360	840	0.5	> 1600	
Nc1nc(Cl)nc2c1ccn2[C@H]1C[C@H](O)[C@@H](CO)O1	> 5000	> 5000	1100	0.5	> 5000	
NC(=O)c1ncn([C@@H]2O[C@H](CO)[C@@H](O)[C@H]2O)n1 [RIBAVIRIN]	190	30	85		160	Toxic level [13]: Non-toxic
Cc1nc(N)c2ccn([C@H]3C[C@H](O)[C@@H](CO)O3)c2n1	1600	920	3100	1.6	> 5000	
Cc1cc2cncnc2n1[C@H]1C[C@H](O)[C@@H](CO)O1				5		EC50 [14]: 1100 µM; EC50 [15]: 1000 µM; EC50 [16]: 300 µM; EC50 [17]: 74 µM
CSc1nc(N)c2cc(C)n([C@H]3C[C@H](O)[C@@H](CO)O3)c2n1	1300	250	1000	1.6	> 5000	
CSc1ncc2cc(C)n([C@H]3C[C@H](O)[C@@H](CO)O3)c2n1	2900	95	840	> 5	1100	
Cc1cc2c(N)ncnc2n1[C@H]1C[C@H](O)[C@@H](CO)O1	2100	500	1000	5	500	
OC[C@H]1O[C@@H](n2ccc3c(S)ncnc32)C[C@@H]1O	160	27	1100	5	> 5000	
CSc1nc(N)c2cc(Cl)n([C@H]3C[C@H](O)[C@@H](CO)O3)c2n1	580	100	> 500	0.5	340	
OC[C@H]1O[C@@H](n2ccc3cncnc32)C[C@@H]1O	1400	250	> 5000	5	> 5000	
OC[C@H]1O[C@@H](n2ccc3c(Cl)ncnc32)C[C@@H]1O	650	89	> 5000	1.6	960	IC50 [2]: 73 µM; IC50 [3]: 59 µM
